Several values for one entry are separate records, joined by “and”; a condition that tells them apart may be missing. Equal values may be shown once. Entries after “also recorded” stand apart in the source; their conditions may differ.
How the values were obtained:
[1] = test system: Neuro2A-G cells; test: Uptake of SNALP containing Cy3-labeled siRNA, fluorescence microscopy; type: cell-based; conditions: 0.5 μg/mL siRNA, 4 hours
Method: Uptake of SNALP Containing Cy3-labeled siRNA: SNALP were formulated as previously described, but using siRNA labelled with the fluorophore Cy3 (Cy3-siRNA was a gift of Sirna Therapeutics Inc, Boulder, Colo.). The encapsulation, siRNA concentration, and particle size were determined as described.
For the uptake study, 8×10^4 Neuro2A-G cells were grown overnight on 4-well chamber slides (BD Falcon, Mississauga, ON) in MEM containing 0.25 mg/mL G418. DSDMA, DODMA, DLinDMA, and DLenDMA SNALP containing Cy3-siRNA, as well as naked Cy3-siRNA and unlabeled DSDMA SNALP were placed on the cells at 0.5 μg/mL siRNA. After a 4 hour incubation with the transfection media, the cells were washed with PBS, then with MEM containing G418 and finally with PBS once more. […] The cells were viewed using an Olympus BX60 Microscope modified for fluorescence capabilities. Cy3 fluorescence within the cells was visualized using a rhodamine cube set (Microgen Optics, Redding, Calif.) and the DAPI fluorescence was visualized using a DAPI cube set (Carsen Group, Markham, ON). […] Pictures of the cells were taken at exposure times of ¼ sec when examining Cy3 fluorescence and 1/80 sec when examining DAPI fluorescence.
The uptake process was examined further with the use of fluorescently labelled SNALP. […] The Cy3 fluorescence (red) is most intense in cells treated with DSDMA containing SNALP. […]

[2] = test system: Neuro2A cells; test: Cellular uptake of 3H-CHE-labeled SNALP; type: cell-based; conditions: 24 hours
Method: Cellular Uptake: SNALP were prepared incorporating the non-exchangeable tritium-labeled lipid cholesteryl hexadecyl ether (3H—CHE) (11.1 μCi/μmol total lipid) [Bally et al., in Liposome Technology, Vol. III, pp. 27-41, CRC Press (1993)]. Neuro2A cells (ATCC, VA, USA) were plated in 12 well plates at 1.6×10^5 cells per well in minimal essential media. The following day, media was removed and replaced with media containing radiolabelled SNALP at 0.5 μg/mL nucleic acid. After 24 hours, the media and unincorporated SNALP were removed, adherent cells gently washed 4 times with PBS, and then lysed with 600 μL Lysis Buffer (250 mM phosphate with 0.1% Triton X-100). The resulting cell lysate (500 μL) was added to glass scintillation vials containing 5 mL Picofluor 40 (Perkin Elmer) and ^3H—CHE was determined using a Beckman LS6500 scintillation counter (Beckman Instruments). The protein content of cell lysates was determined using the Micro BCA assay (Pierce). Uptake was expressed as a percentage of the total amount of activity applied to the cells per mg of cellular protein.
The extent to which formulations are taken up by cells was measured with SNALP incorporating ^3H-labeled CHE [Bally et al., in Liposome Technology, Vol. III, pp. 27-41, CRC Press (1993)]. […] Uptake is expressed as a percentage of the total activity applied to the cells. […]

[3] = Nucleic acid encapsulation in SNALP, RiboGreen fluorescence assay; type: physicochemical; conditions: SNALP DSPC:Chol:PEG-C-DMA:Cationic Lipid 20:48:2:30 molar percent, siRNA; mean of 3 experiments, error is standard deviation
Method: SNALP Preparation: SNALP with a lipid composition of DSPC:Chol:PEG-C-DMA:Cationic Lipid (20:48:2:30 molar percent) were prepared using the spontaneous vesicle formation by ethanol dilution method [Jeffs et al., Pharm. Res. In Press (2005)]. The sample's were diafiltered against 100 mL of PBS (20 wash volumes) using a cross flow ultrafiltration cartridge (Amersham Biosciences, Piscataway, N.J.) and sterile filtered through Acrodisc 0.2 μm Posidyne filters (Pall Corp., Ann Arbor, Mich.). The siRNA concentration of final samples was determined using the RiboGreen assay and a siRNA standard curve. Particle size and polydispersity was determined using a Malvern Instruments Zetasizer 3000HSA (Malvern, UK). Nucleic acid encapsulation was determined using a RiboGreen assay, comparing fluorescence in the presence and absence of Triton X-100. RiboGreen fluorescence was measured using a Varian Eclipse Spectrofluorometer (Varian Inc) with λex=500 nm, λem=525 nm.
This example sets forth the physical properties of the SNALP formulations described herein. SNALP containing the various cationic lipids were prepared as described and encapsulated RNA and particle size assessed (Table 1 below). […] Polydispersity of all formulations was low, indicating a narrow distribution of particle size. RNA encapsulation in the final particles was 84-85% of the total.
Percentage Encapsulation was determined using the RiboGreen fluorescence assay to measure the amount of encapsulated nucleic acid relative to the total nucleic acid present. Particle diameter and polydispersity was measured using a Malvern Zetasizer. Values are the mean of 3 separate experiments, the error is standard deviation.

SMILES | cellular uptake of Cy3-labeled siRNA (Cy3 fluorescence) [1] | cellular uptake of 3H-CHE-labeled SNALP [2] | % Encapsulation [3]
CC/C=C\C/C=C\C/C=C\CCCCCCCCOCC(CN(C)C)OCCCCCCCC/C=C\C/C=C\C/C=C\CC (stereo not drawn) [DLenDMA, 1,2-Dilinolenyloxy-N,N-dimethylaminopropane] | extremely faint | particularly limited; also recorded: limited when compared to that of the DLinDMA formulation | 85 ± 1%
CCCCCCCCCCCCCCCCCC[N+](C)(C)CCCCCCCCCCCCCCCCCC [DSDMA, Distearyldimethylammonium] | most intense | greatest degree of uptake; also recorded: taken up most readily | 67% and 67 ± 3%

Source: patent US7745651B2, “Cationic lipids and methods of use” (Protiva Biotherapeutics, Inc., priority 2004, dated 2010)
